# Test results taken from patent US11813268B2, “Mitofusin activators and uses thereof” (Albert Einstein College of Medicine, priority 2017, dated 2023).
# Peptide text beside a SMILES is read from it.
# Molecular target: T1, human Mfn2 (Homo sapiens, UniProt O95140)
# T1 construct: expressed in transfected cells; host or cells: HEK 293T
# T1 sequence (O95140 1-757): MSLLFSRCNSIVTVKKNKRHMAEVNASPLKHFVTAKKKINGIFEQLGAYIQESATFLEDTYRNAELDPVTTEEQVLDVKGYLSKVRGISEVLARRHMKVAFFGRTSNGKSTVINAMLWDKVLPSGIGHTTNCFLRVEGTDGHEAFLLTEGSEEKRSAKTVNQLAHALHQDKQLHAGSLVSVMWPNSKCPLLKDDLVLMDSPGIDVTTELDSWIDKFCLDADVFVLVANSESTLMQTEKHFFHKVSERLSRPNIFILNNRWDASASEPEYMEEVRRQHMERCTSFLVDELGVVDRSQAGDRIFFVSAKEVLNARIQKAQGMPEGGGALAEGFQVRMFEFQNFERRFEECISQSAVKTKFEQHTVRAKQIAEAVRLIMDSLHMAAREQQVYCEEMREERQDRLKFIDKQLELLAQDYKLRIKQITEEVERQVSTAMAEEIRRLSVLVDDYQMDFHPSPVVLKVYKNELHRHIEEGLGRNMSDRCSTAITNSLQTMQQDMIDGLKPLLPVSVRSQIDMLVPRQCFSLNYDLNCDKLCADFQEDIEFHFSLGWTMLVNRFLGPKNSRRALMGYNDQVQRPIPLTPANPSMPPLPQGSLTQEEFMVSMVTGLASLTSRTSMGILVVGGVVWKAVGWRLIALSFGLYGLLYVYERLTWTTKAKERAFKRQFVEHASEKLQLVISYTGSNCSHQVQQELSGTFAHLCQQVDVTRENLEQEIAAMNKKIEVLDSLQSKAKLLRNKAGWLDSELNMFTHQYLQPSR
# Assay: FRET-based Mfn2 biosensor (wild type) in HEK 293T cells
# Type: cell-based
# Set-up: concentration or dose not given beside the values
# Details: WT FRET-based Mfn2 biosensor, 2 h
# Method: To generate FRET-based Mfn2 biosensor construct, pcDNA3.1-Flag-Mfn2 (5′Flag epitope cassette onto human Mfn2) was used as backbone, and mCerulean (cyan fluorescent protein; CFP) was fused onto 5′ of Mfn2 and mVenus (yellow fluorescent protein; YFP) onto 3′ of ORF of Mfn2 (20-22). […] Then, the mVenus fragment was fused into pcDNA3.1-Cerulean1-Mfn2 to generate pcDNA3.1-Cerulean1-Mfn2-mVenus with mega-mutagenesis PCR using mVenus fragment as mega primer. PCR conditions: lx 95° C. 10 min; 15×(95° C. 30 sec, […], 68° C. 18 min); 1×72° C. 10 min. The construct was confirmed by sequencing.
# Cells were transfected with the total amount of 2.5 μg of DNA per well for the indicated Mfn2 FRET constructs using Lipofectamine® 3000 Reagent (Invitrogen) according to the manufacturer's protocol. The following day, transfected cells were transferred to a pre-coated with poly L-lysine 96-well black plate (2×10^4 cells/well). […] GTPγS (Sigma Aldrich) was used to inhibit GTPase activity of Mfn2. Subsequently, cells were treated for 2 h with MASMs or vehicle (0.1% DMSO). Dilutions of MASMs were performed using a TECAN D300e Digital Dispenser from 10 mM stock solutions. […] Acceptor/Donor ratio referred to the text and figures correspond to the ratio of fluorescence intensities (relative fluorescence units: RFU) detected by the acceptor filter/donor filter. Non-transfected cells were used to subtract background fluorescence from each of the aforementioned filters that were used in the study.
# To evaluate the capacity of the selected hits to propel the pro-tethering conformation of Mfn2, a screening assay was developed based on a Forster resonance energy transfer (FRET) biosensor of Mfn2. […] Loss of intra-molecular HR1-HR2 interactions, occurring in the pro-tethering conformation of Mfn2, increase the distance between mCerulean and mVenus and lead to a decrease in the resonance energy that is transferred.
row,SMILES,% of FRET reduction [%]
1,Cc1cc(NC(=O)C(C)SCC(=O)Nc2ccc(NC(C)c3ccccc3)cc2)no1 (centres unmarked) [MASM1],−5.3
2,Cc1ccc(C(=O)C(C)Sc2nnc3c(=O)n(-c4ccc(Br)cc4)ccn23)cc1C (centres unmarked) [MASM2],−0.5
3,Cc1ccc(CSCCNC(=O)C2CCN(c3ccc4nnc(C(F)(F)F)n4n3)CC2)cc1 [MASM3],−14.1
4,CC(/N=N/C(=N)SC1CC(=O)N(c2cccc(C(=O)O)c2)C1=O)c1ccccc1 (centres unmarked) [MASM4],−8.6
5,CC(c1cccc([N+](=O)[O-])c1)N(C)CC(=O)NCCSCc1ccccc1C#N (centres unmarked) [MASM5],0
6,CCC(SC1Cc2cc(OC)c(OC)cc2-c2nc(CCn3nc(C)cc3C)nn21)C(=O)Nc1ccc(F)cc1 (centres unmarked) [MASM6],−0.7
7,CC(Sc1nc(C2CC2)nc2c1c(=O)[nH]c(=O)n2C1CC1)C(=O)NCC1CCCCC1 (centres unmarked) [MASM8],1.2
8,COc1ccc2c(c1)C1(SCCN1C(=O)c1ccccc1C)C(=O)N2Cc1cccc(C(F)(F)F)c1 (centres unmarked) [MASM9],1.1
9,O=C(CSCc1ccc(F)cc1)N1CCc2c([nH]c3ccccc23)C1c1ccc(Cl)cc1 (centres unmarked) [MASM11],1.97
10,c1ccc(CSCCc2nc(C3CCOC3)no2)cc1 (centres unmarked) [MASM12],−4.5
11,CC(=O)NC12CC3CC(C1)CC(C(=O)NCCSCc1ccc(C)cc1)(C3)C2 [MASM13],−4.6
12,CCC(C)NC(=O)c1ccccc1NC(=O)C(C)Sc1ccc(C)cc1 (centres unmarked) [MASM14],−10
13,S=C(NCCSCc1ccco1)NC1CC2CCC1C2 (centres unmarked) [MASM15],−3.6
14,O=C(NCCSCc1ccccc1)C1CCCCO1 (centres unmarked) [MASM16],−11.2
15,Cc1ccc(NC(=O)CC2SC(CC(c3ccc(C(C)C)cc3)c3c(O)[nH]c(=O)[nH]c3=O)=NC2=O)c(C)c1 (centres unmarked) [MASM17],−5.9
16,COc1ccc(SC(C)C(=O)Nc2cc[nH]n2)cc1 (centres unmarked) [MASM18],−5.8
17,CC(Sc1nnc(C2CC2)n1-c1ccccc1)C(=O)NC(N)=O (centres unmarked) [MASM19],2.7
18,CC(Sc1nnc(-c2ccccc2)n1-c1ccccc1)C(=O)Nc1sc2c(c1C(N)=O)CCC2 (centres unmarked) [MASM20],10.1
19,NC(=O)c1c(NC(=O)CSc2nnc(C3CC3)n2-c2ccccc2)sc2c1CCC2 [MASM21],27.1
20,CC(Sc1nnc(-c2ccco2)n1-c1ccccc1)C(=O)Nc1sc2c(c1C(N)=O)CCC2 (centres unmarked) [MASM22],31.7
21,Cc1ccc(-c2nnc(SC(C)C(=O)Nc3sc4c(c3C(N)=O)CCC4)n2-c2ccccc2)o1 (centres unmarked) [MASM23],13.9
22,CC1CCc2c(sc(NC(=O)CSc3nnc(C4CC4)n3-c3ccccc3)c2C(N)=O)C1 (centres unmarked) [MASM24],18.9

row,SMILES,% of FRET reduction [%]
1,CC(Sc1nnc(C2CC2)n1Cc1ccccc1)C(=O)Nc1sc2c(c1C(N)=O)CCC2 (centres unmarked) [MASM25],32.2
2,Cc1nnc(SCC(=O)Nc2sc3c(c2C(N)=O)CCC3)n1-c1ccccc1 [MASM26],37.0
3,Cc1ccccc1-n1c(SCC(=O)Nc2sc3c(c2C(N)=O)CCC3)nnc1-c1ccncc1 [MASM27],30.0
4,CC(Sc1nnc(C2CC2)n1-c1ccccc1)C(=O)Nc1sc2c(c1C#N)CCCCC2 (centres unmarked) [MASM28],8.0
5,CC(Sc1nncn1-c1ccccc1)C(=O)Nc1sc2c(c1C(N)=O)CCC2 (centres unmarked) [MASM29],16.5
6,C=CCn1c(SCC(=O)Nc2sc3c(c2C(N)=O)CCC3)nnc1C1CCCCC1 [MASM30],17.7
7,CC(Sc1nnc(Cc2cccs2)n1C1CC1)C(=O)Nc1sc2c(c1C(N)=O)CCC2 (centres unmarked) [MASM31],30.7
8,NC(=O)c1c(NC(=O)CSc2nc(C3CC3)n(-c3ccccc3)n2)sc2c1CCC2 [MASM32],37.0
9,CC(c1nnc(SCC(=O)Nc2sc3c(c2C(N)=O)CCC3)n1-c1ccc(F)cc1)N(C)C (centres unmarked) [MASM33],31.9
10,CC(Sc1nnc2c(Cl)cc(C(F)(F)F)cn12)C(=O)Nc1sc2c(c1C(N)=O)CCC2 (centres unmarked) [MASM34],19.4
11,CC(Sc1nnc(Cc2ccccc2)n1C)C(=O)Nc1sc2c(c1C(N)=O)CCC2 (centres unmarked) [MASM35],25.9
12,CC(Sc1nnc(-c2cccs2)n1-c1ccccc1)C(=O)Nc1sc2c(c1C(N)=O)CCC2 (centres unmarked) [MASM36],11.1
13,CC(Sc1nccn1Cc1ccccc1)C(=O)Nc1sc2c(c1C(N)=O)CCC2 (centres unmarked) [MASM37],21.0
14,CCn1c(Cc2ccccc2)nnc1SC(C)C(=O)Nc1sc2c(c1C(N)=O)CCC2 (centres unmarked) [MASM38],9.9
15,CC(Sc1nnc(-c2ccco2)n1C1CCCCC1)C(=O)Nc1sc2c(c1C(N)=O)CCC2 (centres unmarked) [MASM39],9.9
16,CC(Sc1nnnn1-c1ccc(O)cc1)C(=O)Nc1sc2c(c1C(N)=O)CCC2 (centres unmarked) [MASM40],22.6
17,CC(Sc1nccn1-c1cccc(F)c1)C(=O)Nc1sc2c(c1C(N)=O)CCC2 (centres unmarked) [MASM41],10.2
18,CC(C)Cn1c(SC(C)C(=O)Nc2sc3c(c2C(N)=O)CCC3)nnc1N1CCOCC1 (centres unmarked) [MASM42],−1.4
19,NC(=O)c1c(NC(=O)CSc2nnc(C3CC3)n2Cc2ccccc2)sc2c1CCC2 [MASM43],14.8
20,Cn1c(SCC(=O)Nc2sc3c(c2C(N)=O)CCCC3)nnc1C1CC1 [MASM44],23.3
21,CC(Sc1nnnn1C1CC1)C(=O)Nc1sc2c(c1C(N)=O)CCC2 (centres unmarked) [MASM45],26.4

# Tested on: WT MEFs
# Assay: cells
# Details: read-out: EC50 for inducing fusion (Mito AR); WT MEFs, mitochondrial aspect ratio
# Excerpt: Next, it was visually examined if MASM7 could induce mitochondrial fusion in MEFs, using mitochondrial aspect ratio (mitochondrial length/width, reflecting fusion) as a readout. […] (FIG. 5).
row,SMILES,EC50 [nM]
1,"CC[C@H](C)[C@H](NC(=O)CNC(=O)[C@H](CCCNC(=N)N)NC(=O)[C@@H](NC(=O)[C@H](CCC(=O)O)NC(=O)[C@H](C)NC(=O)[C@@H](NC(=O)[C@@H](N)CCC(N)=O)[C@@H](C)CC)C(C)C)C(=O)N[C@@H](CCSC)C(=O)N[C@@H](CC(=O)O)C(=O)N[C@@H](CO)C(=O)N[C@@H](CC(C)C)C(=O)N[C@@H](Cc1c[nH]cn1)C(=O)N[C@@H](CCSC)C(=O)N[C@@H](C)C(=O)N[C@@H](C)C(=O)N[C@@H](CCCNC(=N)N)C(=O)NCC(=O)NCC(=O)N[C@@H](Cc1ccc(O)cc1)C(=O)NCC(=O)N[C@@H](CCCNC(=N)N)C(=O)N[C@@H](CCCCN)C(=O)N[C@@H](CCCCN)C(=O)N[C@@H](CCCNC(=N)N)C(=O)N[C@@H](CCCNC(=N)N)C(=O)N[C@@H](CCC(N)=O)C(=O)N[C@@H](CCCNC(=N)N)C(=O)N[C@@H](CCCNC(=N)N)C(=O)N[C@@H](CCCNC(=N)N)C(=O)O [367-384 Gly, reference compound] (H-QIAEVRGIMDSLHMAARGGYGRKKRRQRRR-OH)",340
